Results: ChEMBL document CHEMBL1124529, “Sodium channel binding and anticonvulsant activities for the enantiomers of a bicyclic 2,4-oxazolidinedione and monocyclic models” (J Med Chem, 1989)

What was measured:
[1] = tested on: Mus musculus; assay: Anticonvulsant activity of the compound, 0.5 hr after administration in maximal electroshock mice model; type: functional
[2] = Anticonvulsant activity of the compound,0.25 h after administration in mice subjected to rotarod toxicity test; type: organism-based; conditions: mouse, in vivo
[3] = target: T1, Sodium channel alpha subunits; brain (Types I, II, III) (Rattus norvegicus) (UniProt P04775+P04774+P08104); assay: Displacement of [3H]BTX-B from rat cerebral cortex voltage-gated sodium channel, 0.5 hr after 190 uM; type: tissue-based
T1 sequence (P04775 whole entry, looked up, other chains not shown): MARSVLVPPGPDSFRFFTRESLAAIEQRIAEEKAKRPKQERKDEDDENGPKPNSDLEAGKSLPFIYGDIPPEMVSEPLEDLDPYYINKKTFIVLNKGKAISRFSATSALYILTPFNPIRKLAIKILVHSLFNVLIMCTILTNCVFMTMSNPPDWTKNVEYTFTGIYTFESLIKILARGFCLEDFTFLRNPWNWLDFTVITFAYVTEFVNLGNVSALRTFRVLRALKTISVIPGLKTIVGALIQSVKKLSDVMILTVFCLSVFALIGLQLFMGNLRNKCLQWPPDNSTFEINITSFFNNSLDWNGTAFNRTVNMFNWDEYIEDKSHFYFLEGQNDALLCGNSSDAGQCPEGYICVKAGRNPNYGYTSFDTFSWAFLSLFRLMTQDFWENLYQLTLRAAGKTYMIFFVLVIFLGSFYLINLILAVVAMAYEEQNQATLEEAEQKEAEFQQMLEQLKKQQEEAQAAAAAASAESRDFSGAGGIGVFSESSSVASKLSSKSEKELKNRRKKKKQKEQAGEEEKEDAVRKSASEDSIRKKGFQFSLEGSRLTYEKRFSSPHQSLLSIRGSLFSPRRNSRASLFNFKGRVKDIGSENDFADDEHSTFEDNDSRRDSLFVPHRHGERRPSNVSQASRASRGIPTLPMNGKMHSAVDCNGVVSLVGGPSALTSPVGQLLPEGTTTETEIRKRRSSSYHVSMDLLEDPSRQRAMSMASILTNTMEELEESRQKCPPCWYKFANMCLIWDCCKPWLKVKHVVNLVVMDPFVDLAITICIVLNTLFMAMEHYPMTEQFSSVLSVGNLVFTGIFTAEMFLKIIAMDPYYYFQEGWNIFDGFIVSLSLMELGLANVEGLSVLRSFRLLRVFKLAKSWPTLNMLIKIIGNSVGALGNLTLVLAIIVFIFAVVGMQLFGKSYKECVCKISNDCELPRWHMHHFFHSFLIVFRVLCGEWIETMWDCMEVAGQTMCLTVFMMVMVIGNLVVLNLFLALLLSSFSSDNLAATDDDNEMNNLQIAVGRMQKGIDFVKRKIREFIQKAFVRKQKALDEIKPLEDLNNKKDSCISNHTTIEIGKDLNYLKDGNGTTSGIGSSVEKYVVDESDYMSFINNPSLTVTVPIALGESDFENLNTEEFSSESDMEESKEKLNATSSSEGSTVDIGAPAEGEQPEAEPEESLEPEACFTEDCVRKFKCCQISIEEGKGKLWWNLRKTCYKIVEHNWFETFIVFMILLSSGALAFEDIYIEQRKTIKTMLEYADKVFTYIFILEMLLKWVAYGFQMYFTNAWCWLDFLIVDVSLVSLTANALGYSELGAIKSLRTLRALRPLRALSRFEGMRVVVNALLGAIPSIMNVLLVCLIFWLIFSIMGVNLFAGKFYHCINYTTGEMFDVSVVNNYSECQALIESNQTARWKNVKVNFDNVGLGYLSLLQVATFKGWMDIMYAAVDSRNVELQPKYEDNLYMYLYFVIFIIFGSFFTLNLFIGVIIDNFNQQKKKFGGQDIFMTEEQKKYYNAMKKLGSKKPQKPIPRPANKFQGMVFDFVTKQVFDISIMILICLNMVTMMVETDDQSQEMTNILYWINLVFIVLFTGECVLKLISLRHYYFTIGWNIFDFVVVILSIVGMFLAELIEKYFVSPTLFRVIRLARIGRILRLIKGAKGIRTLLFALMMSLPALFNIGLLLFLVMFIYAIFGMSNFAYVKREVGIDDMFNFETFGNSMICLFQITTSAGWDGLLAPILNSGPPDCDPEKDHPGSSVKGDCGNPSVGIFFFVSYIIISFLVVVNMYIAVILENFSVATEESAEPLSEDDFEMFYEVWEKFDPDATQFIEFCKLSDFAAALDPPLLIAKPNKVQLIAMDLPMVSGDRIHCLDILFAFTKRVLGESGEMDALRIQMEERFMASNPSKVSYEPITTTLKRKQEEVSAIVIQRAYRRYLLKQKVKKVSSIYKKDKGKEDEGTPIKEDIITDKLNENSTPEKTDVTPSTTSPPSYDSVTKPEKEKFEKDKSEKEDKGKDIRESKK
T1 sequence (P08104 whole entry, looked up, other chains not shown): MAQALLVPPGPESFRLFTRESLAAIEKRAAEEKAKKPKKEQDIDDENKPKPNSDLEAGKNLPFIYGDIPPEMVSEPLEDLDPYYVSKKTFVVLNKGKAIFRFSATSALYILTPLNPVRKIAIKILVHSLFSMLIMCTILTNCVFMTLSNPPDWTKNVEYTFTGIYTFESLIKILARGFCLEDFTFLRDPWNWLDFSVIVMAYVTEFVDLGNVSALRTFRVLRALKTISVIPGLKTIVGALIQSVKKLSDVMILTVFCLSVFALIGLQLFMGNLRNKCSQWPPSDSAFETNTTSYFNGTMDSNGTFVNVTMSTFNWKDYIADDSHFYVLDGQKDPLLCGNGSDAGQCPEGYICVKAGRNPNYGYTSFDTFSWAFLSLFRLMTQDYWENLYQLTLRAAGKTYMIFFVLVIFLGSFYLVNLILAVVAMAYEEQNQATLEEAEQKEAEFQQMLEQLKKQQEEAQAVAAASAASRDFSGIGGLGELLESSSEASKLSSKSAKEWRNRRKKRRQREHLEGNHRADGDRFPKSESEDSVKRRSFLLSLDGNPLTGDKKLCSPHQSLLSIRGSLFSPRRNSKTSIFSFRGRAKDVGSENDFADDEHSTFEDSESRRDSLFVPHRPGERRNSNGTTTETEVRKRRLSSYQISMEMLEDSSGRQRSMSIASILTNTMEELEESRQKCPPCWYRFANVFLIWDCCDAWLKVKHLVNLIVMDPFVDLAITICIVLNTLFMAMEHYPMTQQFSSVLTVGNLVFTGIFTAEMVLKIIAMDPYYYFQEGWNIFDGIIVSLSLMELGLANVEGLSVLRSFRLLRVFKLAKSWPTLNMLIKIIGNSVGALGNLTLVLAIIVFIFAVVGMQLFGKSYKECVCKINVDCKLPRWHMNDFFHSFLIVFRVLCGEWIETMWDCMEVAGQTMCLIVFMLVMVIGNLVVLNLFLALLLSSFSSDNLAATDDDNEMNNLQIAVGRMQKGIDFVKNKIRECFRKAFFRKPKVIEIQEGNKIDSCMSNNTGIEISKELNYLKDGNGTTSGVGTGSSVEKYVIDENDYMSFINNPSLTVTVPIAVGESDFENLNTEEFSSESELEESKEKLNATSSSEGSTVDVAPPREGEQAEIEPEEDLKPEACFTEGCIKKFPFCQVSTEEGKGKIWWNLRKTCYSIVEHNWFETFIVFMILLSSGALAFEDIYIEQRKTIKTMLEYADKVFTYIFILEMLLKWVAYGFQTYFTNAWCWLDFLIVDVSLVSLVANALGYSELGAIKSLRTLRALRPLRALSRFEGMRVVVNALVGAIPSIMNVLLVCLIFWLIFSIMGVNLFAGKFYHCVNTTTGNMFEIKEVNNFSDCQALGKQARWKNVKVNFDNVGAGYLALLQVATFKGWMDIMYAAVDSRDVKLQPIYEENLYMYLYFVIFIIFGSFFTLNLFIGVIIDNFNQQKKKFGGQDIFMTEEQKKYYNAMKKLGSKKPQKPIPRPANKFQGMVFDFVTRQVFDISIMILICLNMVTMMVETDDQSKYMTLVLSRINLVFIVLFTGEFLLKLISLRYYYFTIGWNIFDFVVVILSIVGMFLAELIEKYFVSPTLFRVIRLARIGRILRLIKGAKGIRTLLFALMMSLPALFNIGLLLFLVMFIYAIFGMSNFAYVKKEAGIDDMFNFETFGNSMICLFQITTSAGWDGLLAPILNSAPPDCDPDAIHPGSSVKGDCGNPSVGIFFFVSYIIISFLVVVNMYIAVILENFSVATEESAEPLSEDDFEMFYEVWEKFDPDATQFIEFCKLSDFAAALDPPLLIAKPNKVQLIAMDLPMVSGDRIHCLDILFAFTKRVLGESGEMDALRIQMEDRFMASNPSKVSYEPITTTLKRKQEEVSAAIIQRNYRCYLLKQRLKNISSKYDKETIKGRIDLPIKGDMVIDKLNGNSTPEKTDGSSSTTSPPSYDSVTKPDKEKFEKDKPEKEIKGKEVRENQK

[4] = tested on: Mus musculus; assay: Anticonvulsant activity of the compound, 0.5 hr after administration of compound in mice subjected to subcutaneous metrazole challenge (85 mg/kg); type: functional; conditions: sc
[5] = Anticonvulsant activity of the compound,0.5 hr after administration in mice subjected to rotarod toxicity test; type: organism-based; conditions: mouse, in vivo
[6] = target: T1, Sodium channel alpha subunits; brain (Types I, II, III) (Rattus norvegicus); assay: Displacement of [3H]BTX-B from rat cerebral cortex voltage-gated sodium channel, 0.5 hr after 500 uM; type: tissue-based
[7] = organism: Mus musculus; assay: Anticonvulsant activity when mice were subjected to maximal electroshock; type: functional
[8] = target: T1, Sodium channel alpha subunits; brain (Types I, II, III) (Rattus norvegicus); assay: Displacement of [3H]BTX-B from rat cerebral cortex voltage-gated sodium channel, 0.25 hr after 160 uM; type: tissue-based

Row | Structure (SMILES) | inhibition [3] [%] | inhibition [6] [%] | inhibition [8] [%] | ED50 [1] [mg/kg] | TD50 at 0.25 h [2] [mg/kg] | ED50 [4] [mg/kg] | TD50 at 0.5 h [5] [mg/kg] | ED50 [7] [mg/kg]
1 | O=C1O[C@]2(c3ccccc3)CCCCCN1C2=O | 50 |  |  | 82 | 334 | < 400 |  | 
2 | CCC1(c2ccccc2)OC(=O)NC1=O (racemic) |  | 44 |  |  |  |  |  | 
3 | CC(=O)N[C@H](C(=O)NCc1ccccc1)c1ccccc1 |  |  |  |  |  |  |  | > 300
4 | O=C1OC2(c3ccccc3)CCCCCN1C2=O (racemic) |  |  | 50 | 66 |  | 45 | 147 | 
5 | O=C1O[C@@]2(c3ccccc3)CCCCCN1C2=O | 50 |  |  | 45 |  | 50 | 84 | 
6 | CC[C@@]1(c2ccccc2)OC(=O)N(C)C1=O |  | 45 |  | 188 |  | 64 | 395 | 
7 | CC(=O)N[C@@H](C(=O)NCc1ccccc1)c1ccccc1 |  |  |  |  |  |  |  | 26
8 | CCC1(c2ccccc2)OC(=O)N(C)C1=O (racemic) |  | 50 |  | 124 |  |  |  | 

More lines, main results first:

Row | inhibition [3] [%] | inhibition [6] [%] | inhibition [8] [%] | Structure (SMILES) | ED50 [1] [mg/kg] | TD50 at 0.25 h [2] [mg/kg] | ED50 [4] [mg/kg] | TD50 at 0.5 h [5] [mg/kg] | ED50 [7] [mg/kg]
9 |  | 36 |  | CC[C@@]1(c2ccccc2)OC(=O)NC1=O | 141 |  | 42 | 155 | 
10 |  | 46 |  | CC[C@]1(c2ccccc2)OC(=O)NC1=O | 91 |  | 108 | 172 | 
11 |  | 49 |  | CC[C@]1(c2ccccc2)OC(=O)N(C)C1=O | 122 |  | 69 | 354 | 
